Measurements taken from US8138304B2, “Neural regeneration peptides and formulations thereof” (Neuren Pharmaceuticals Limited, priority 2005, dated 2012).
Where no end group is shown, it is not given here.

Assays:
JAr cells = assay: TNF-alpha-induced cytotoxicity in immortalized trophoblast cell line; assay type: cell-based, human; details: EGF 5 ng/ml
Description: Choriocarcinoma cells (Jeg-3, BeWo and Jar; ATCC) were cultured under similar conditions in DMEM/F-12 cell culture medium in 75 cm2 flasks with filter tops (Raylab). Cells were allowed to adhere and grow in an incubator equilibrated in 95%/5% air/CO2 to approximately 70% confluence, before being split every 2 to 3 days by addition of 2 ml of 1× concentrated trypsin-EDTA. After a centrifugation step for 5 min at 1100 rpm, cells were resuspended in 15 ml of fresh DMEM/F-12 in sterile tissue flasks and placed back in the incubator.
In this study, we plated 50,000 JAr cells per well. JAr cells are an immortalized line of cells derived from a human choriocarcinoma cells. Wells were pre-incubated with NRP-5RG D6A (SEQ ID NO: 1) at the concentrations indicated in FIG. 12, or epidermal growth factor (EGF; 5 ng/ml) for 2 hours. Subsequently, cells were exposed to the cultures for 48 hours to TNF-alpha (5 ng/ml) and interferon-gamma (5 ng/ml) to induce stress.

[1] = tested on: primary human trophoblasts; assay: Trophoblast proliferation assay (BrdU incorporation); assay type: cell-based; details: EGF 0.8×10^−9 M; 24 hrs; BrdU
Description: Cell proliferation was determined by BrdU incorporation to examine the effects of NRP-5RG D6A on the proliferation of trophoblasts. EGF (0.8×10^−9 M) was used as a positive control, since studies have previously shown it plays a role in enhancing trophoblast proliferation (Maruo et al., 1992).
Initially cells were treated with NRP-5RG D6A (SEQ ID NO: 1), EGF and BrdU (0.05 μM) for 72 hrs. After the first 24 hrs, an 80% media change was carried out since BrdU is toxic over long incubation periods. Following 72 hrs of incubation, the reaction was stopped by fixation in 4% PFA. However, with this experimental design, most trophoblasts would form syncytia by the end of the 72 hrs, hindering accurate examination of the proliferative effect of NRP-5RG D6A on trophoblasts. […] This allowed analysis of proliferation of mononuclear trophoblasts.
Cell proliferation was evaluated over 24 hrs after seeding 1.3×10^5 cells/cm^2 in culture media (1% serum) treated with 0.05 μM BrdU, NRP-5RG D6A and EGF (FIG. 13).

cerebellar cells = assay: Cerebellar microexplant proliferation assay (BrdU); assay type: cell-based, Wistar rat; details: p<0.01; SEQ ID NO: 1 at 1 pM, SEQ ID NO: 2 at 100 pM
Description: (§1) Laminated cerebellar cortices of the two hemispheres were explanted from a P3, P4, P7 or P8 Wistar rat, cut into small pieces in GBSS with 0.65% D(+)glucose solution, and triturated by a 0.4 mm gauge needle and subsequently pressed through a 125 μm pore size sieve. The obtained microexplants were centrifuged (60×g) 2 times for a medium exchange into serum-free BSA-supplemented START V-medium (Biochrom). Finally, the microexplants were reconstituted in 500 μl STARTV-medium. For culturing, 38 μl of the cell suspension was incubated for 1 hour on a poly-D-lysine-coated cover slip in a 35 mm Petri dish under an atmosphere comprising 5% CO2 in air and 100% humidity at 34° C. Subsequently, the injuring toxins (as described below), NRPs and 1 ml of STARTV-medium were added, and the cultures were evaluated after 2-3 days of culture.
Toxicological and drug administration experiments were designed such that 1/100 parts of toxin and neuroprotective drug were administered simultaneously to the freshly prepared cerebellar microexplants. Glutamate was prepared as a 50 mM stock solution in MilliQ water while 50 mM 3-nitropropionic acid was pH-adjusted (pH 6.8-7.2) in MilliQ water. The concentrations of the oxidative stress inducing toxin, 3-nitropropionic acid (3-NP), and the excitotoxin, glutamate, in the assay were 0.5 mM each. Lyophilized peptides were reconstituted in PBS or 100 μg/ml human transferrin as a 10 μM stock solution. Subsequently, serial dilutions were made. Cerebellar microexplants were cultivated for 48-72 hours at 34° C., 5% CO2 in air and 100% humidity before they were fixed by increasing amounts of paraformaldehyde (0.4%, 1.2%, 3% and 4%—each treatment 2-3 min).
Using the toxins described above, cerebellar explants were exposed for 24 hours, at the beginning of culturing to dilutions of NRP (survival assay) or NRP and 0.1 μM BrdU (proliferation assay). Subsequently, 80% of the medium was changed without addition of new toxins and NRPs. […]
For statistical analysis of proliferation BrdU-positive nuclei were counted. Statistical significance was measured by Student's t-test.

[2] = Pyridoxine-induced peripheral neuropathy: weight loss; assay type: in vivo, Sprague Dawley rats; details: 4 μg/kg IP daily days 1 to 10
Description: (§2) Adult male Sprague Dawley P50 rats were divided into the vehicle (n=9) and NRP-treated (n=10) groups. The rats were killed with an overdose of sodium pentobarbiturate on the 24 day from the first administration of pyridoxine.
(§3) From day 1, all rats were injected intraperitoneally (IP), twice daily, with 350 mg/kg pyridoxine for 8 consecutive days. Pyridoxine (Sigma) solution for injections was made using the following proportions: 95 mg of pyridoxine and 41 mg sodium bicarbonate in 1 ml of water.
(§4) On days 1 to 10 the vehicle group (n=10) received one daily IP-injection of 24 mM sucrose and the rats in the NRP-treated group (n=10) received 4 μg/kg of NRP-5 segment GG analogue D4A (GRRAAPGRAGG-NH2; SEQ ID NO:2) diluted in 24 mM sucrose. Lyophilised NRP was stored in the presence of sucrose or alternatively in trehalose at room temperature. For every intraperitoneal (i.p.) injection, NRP-5 segment GG analogue D4A was reconstituted to 100 μM peptide concentration containing 0.5M sucrose/trehalose, further diluted with PBS to the actual working solution of 5 μg/ml NRP-5 segment GG analogue D4A (containing 24 mM sucrose). A rat with a body weight of 250 g was injected with 200 μl of the working solution.
Animals are weighed daily during the experimental timeframe of 24 days. According to the study protocol, animals showing weight loss of more than 15% body weight were immediately killed. One of the control animals was sacrificed on day 4 of the pyridoxine treatment (control n=9).

[3] = tested on: peripheral neuropathy induced by pyridoxine; assay: Pyridoxine-induced peripheral neuropathy: motor impairment score; assay type: in vivo, Sprague Dawley rats
Description: as §2, §3
On days 1 to 10 the vehicle group (n=10) received one daily IP-injection of 24 mM sucrose and the rats in the NRP-treated group (n=10) received 4 μg/kg of NRP-5 segment GG analogue D4A (GRRAAPGRAGG-NH2; SEQ ID NO:2) diluted in 24 mM sucrose. Lyophilised NRP was stored in the presence of sucrose or alternatively in trehalose at room temperature. […]
Overall motor impairment was analysed by assessing the gait of each rat: 1) on a flat surface and 2) its ability to walk across a wooden beam. […]
If the animal walked with no difficulty whatsoever, it was scored as a “0.” If there appeared to be problems in its gait, it was placed on a raised wooden beam. […]

[4] = tested on: peripheral neuropathy induced by pyridoxine; assay: Pyridoxine-induced peripheral neuropathy: hind limb adduction test; assay type: in vivo, Sprague Dawley rats; details: end of the study
Description: as §2, §3
as §4, with “A rat with a body weight of 250 g was injected with 200 μl of the working solution.” left out
Overall motor movement impairment was analysed by assessing the ability of each rat to adduct (i.e. keep its limbs close to the body) its hind limbs. […] These were scored as “0”. Rats that drew their hind limbs back after a slight delay were scored as “1”. […]

[5] = tested on: peripheral neuropathy induced by pyridoxine; assay: Pyridoxine-induced peripheral neuropathy: precision beam walk test; assay type: in vivo, Sprague Dawley rats; details: for beam walk score: 7-step walk total score
Description: as §2, §3, §4
The precision beam walk test was used to assess the animals' precise coordinated movement on days 13, 17 and 24. Briefly, animals were habituated once daily for 7 days before start of pyridoxine treatment on a 1.5 m long beam (with two longitudinal stripes indicating the median of the beam). On day 0 (one day before pyridoxine/NRP treatment) a baseline of motor behaviour on the beam was videotaped. […] All scores were added for the 7-step walk to receive a total score for one tested animal at a given time point. If the tested rat could only stand on the beam but was unable to not walk it was given the score of 30, and if it was unable to stand on the beam, it was scored as 32.

[6] = tested on: experimental autoimmune encephalomyelitis (EAE) induced by MOG; assay: EAE model of multiple sclerosis, prophylactic treatment; assay type: in vivo, mice, strain C57Bl/6J; details: for incidence of disease / mortality / average clinical score: 14 days from day 5
cerebellar microexplants = assay: Cerebellar microexplant survival assay (3-NP/glutamate injury); assay type: cell-based, Wistar rat; details: in this particular assay; concentration not given
Description: as §1
Toxicological and drug administration experiments were designed such that 1/100 parts of toxin and neuroprotective drug were administered simultaneously to the freshly prepared cerebellar microexplants. […]
For statistical analysis of survival, four fields (each field having an area of 0.65 mm^2) of each fixed cerebellar culture with the highest cell densities were chosen, and cells displaying neurite outgrowth were counted (survival assay).

[7] = tested on: experimental autoimmune encephalomyelitis (EAE) induced by MOG; assay: EAE model of multiple sclerosis, therapeutic treatment; assay type: in vivo, mice, strain C57Bl/6J; details: score 0-6
[8] = 0.2 μg peptide/day (8.33 μg/kg) i.p.

## EGF: epidermal growth factor; proliferation-inducing peptide used as internal/positive control [reference compound]
JAr cells
  trophoblast proliferation in the absence of TNF-alpha injury: stimulated trophoblast proliferation
JAr cells; 2 hours pre-incubation
  rescue of JAr cells from TNF-alpha-induced cytotoxicity: weak effect
[1]
  increase in trophoblast proliferation compared to control: 116.7±44%

## GRRAAPGRAGG-NH2 (listed as Homo sapiens) [SEQ ID NO: 2, 11-mer analogue of NRP-5]
Cerebellar cells
  proliferation compared against injured cells without NRP: highly proliferation-inducing
[2]
  initial weight loss: 3.7%
[2]; day 8 until day 21
  body weight versus vehicle-treated group: significantly higher
[2]; day 10
  body weight at the peak of weight loss: 96.3+1.2 % of day 1 weight
[3]; day 13 (peak of disease), score 0-3, 4 μg/kg IP daily days 1 to 10
  motor impairment score: 0.60+0.52
[3]; day 24
  motor impairment outcome: recovered
[4]
  animals with no sign of hind limb adduction after manual manipulation: 9 out of 10
[4]; score 0-3, 4 μg/kg IP daily days 1 to 10
  hind limb adduction score: 0.10+0.31
[5]; day 13
  rats that performed the 7-step walk: 6 out of 10
  beam walk score: 23.50 ± 2.46
[5]; day 17
  animals that could perform the walk: all but one
  beam walk score: 21.70 ± 1.43
[5]; day 24
  beam walk, difference between vehicle and NRP-treated group: no longer a significant difference

## GTPGRAEAGGQVSPCLAASCSQAYG (listed as Homo sapiens) [SEQ ID NO: 4, 25-mer NRP-4 GG]
[6]; 1 ug peptide/day i.p.
  incidence of disease: 8 out of 10
  mortality: 0
[6]; day 27, 1 ug peptide/day i.p.
  average clinical score: 1.0
[6]; from 12 days onwards until day 27, 1 ug peptide/day i.p.
  disease profile compared to saline control: significant attenuation of the disease profile

## IGF-1: Neuroprotectant named as comparator in the cerebellar microexplant assay [reference compound]
Cerebellar microexplants
  rescue values, protection: approximately 20%

## REGRRDAPGRAGG (listed as Homo sapiens) [SEQ ID NO: 3, 13-mer NRP-5 segment RG]
[7]; 0.1 μg peptide/animal (4.16 μg/kg) i.p. daily for 14 days from peak of disease
  mean clinical score after treatment: 1.16
[7]; peak of the disease (day 17 after MOG-immunization)
  mean clinical score before treatment: 2.61

## SEPEARRAPGRKGGVVCASLAADW (listed as Mus musculus) [SEQ ID NO: 5, 24-mer NRP-7 SW]
[6]; [8]
  average clinical score: less than 0.5
  incidence of disease: 7 out of 9
  mortality: No animals died
[6]; from day 12 onwards, 0.2 μg peptide/day i.p.
  clinical score compared to saline control: significant attenuation in clinical score
